Read-outs that look alike come from different tables or passages of the source. One block for each molecule: values may come before it.
Columns and labels:
MV4-11 cells = assay: WST-1 cell proliferation assay, MV4-11; assay type: cell-based, human
Experimental: (§1) Cell lines were seeded into 96-well plates the afternoon prior to treatment. Approximately 18 hours later, bis and mono-aziridine dimeric naphthoquinone compounds were semi-serially diluted in dimethyl sulfoxide (DMSO) and then growth medium, and added to cells. Plates were incubated for 72 hours prior to addition of WST-1 (Promega®). Plates were read after 4 additional hours of incubation at 37° C. using a Bio-Tek Synergy® HT plate reader (Bio-Tek®). Data were analyzed and graphed using GraphPad Prism® Software (Graph Pad®).
(§2) Primary AML cells from patients and cell lines were seeded into 96-well plates the afternoon prior to treatment. Eighteen hours later, amino-dimeric naphthoquinone Compounds 106, 101, and 114 were semi-serially diluted in dimethyl sulfoxide (DMSO) and then growth medium, and added to the cells. In order to quantitate proliferation of metabolically active cells, plates were incubated for 72 hours for cell lines and 48 hours for primary AML cells prior to addition of water-soluble tetrazolium (WST-1) (Clontech®). Plates were read after four additional hours of incubation at 37° C. using a Bio-Tek Synergy® HT plate reader (Bio-Tele®). Data were analyzed and graphed using GraphPad Prism® Software (GraphPad®). IC50 was defined as the concentration that decreases viable cell numbers by 50%. IC50 values were calculated as mean±standard deviation from at least two independent experiments. If availability of primary blasts was limited, the IC50 was obtained from a single experiment.

MOLM-14 cells = assay: WST-1 cell proliferation assay, MOLM-14; assay type: cell-based, human
Experimental: as §1, §2
To investigate antiproliferative activity of amino-dimeric naphthoquinones against AML cells, an MTT-like cell proliferation assay was performed in the AML cell lines using WST-1 (water soluble tetrazolium salts; Promega®). MOLM-14 and AML-D cells, as well as normal hematopoietic bone marrow cells from a healthy donor, were exposed to a range of concentrations of Compound 101. Human leukemia cells were cultured in the presence of the compound for 72 hours (48 hours for primary cells) and WST-1 reagent was then added. The cells then were monitored for cell growth or the number of cells proliferating and the IC50 calculated. The IC50 is the concentration at which 50% of the cells are not proliferating compared to control cells treated with vehicle. See FIG. 2A, FIG. 2B, and FIG. 2C for representative graphs of these IC50 determinations.

THP-1 cells = assay: WST-1 cell proliferation assay, THP-1; assay type: cell-based; conditions: Homo sapiens
Experimental: as §1, §2

[1] = Table 1, cell proliferation, read-out: MV411 IC50
[2] = Table 1, cell proliferation, read-out: MOLM14 IC50
[3] = Homo sapiens, MV4-11, Table 2, cell proliferation, read-out: MV411 IC50
[4] = Homo sapiens, MOLM-14, Table 2, cell proliferation, read-out: MOLM14 IC50
[5] = Homo sapiens, MV4-11, Table 3, cell proliferation, read-out: MV411 IC50
[6] = Homo sapiens, MV4-11, Table 9, cell proliferation, read-out: IC50 (μM) MV411
[7] = Homo sapiens, MOLM-14, Table 3, cell proliferation, read-out: MOLM14 IC50
[8] = Homo sapiens, MOLM-14, Table 9, cell proliferation, read-out: IC50 (μM) MOLM-14
[9] = Homo sapiens, MV4-11, Table 7, cell proliferation, read-out: IC50 (μM) MV411
[10] = Homo sapiens, MOLM-14, Table 7, cell proliferation, read-out: IC50 (μM) MOLM-14
[11] = Table 2, cell proliferation, read-out: MV411 IC50
[12] = Table 2, cell proliferation, read-out: MOLM14 IC50
[13] = Homo sapiens, MV4-11, Table 1, cell proliferation, read-out: MV411 IC50
[14] = Homo sapiens, MOLM-14, Table 1, cell proliferation, read-out: MOLM14 IC50

Molecule: 3-chloro-3′-(4-hydroxypiperidinyl)-2,2′-binaphthalenyl-1,1′,4,4′-tetrone [Compound 127]
IC50 (MV4-11 cells; [1]): 2.1 ± 0.56 µM | IC50 (MOLM-14 cells; [2]): 3.6 ± 0.63 µM

Molecule: 3-chloro-3′-hydroxy dimeric naphthoquinone [Compound 144, reference compound]
IC50 (MV4-11 cells; [1]): 3 ± 0.07 µM | IC50 (MV4-11 cells; Table 7, cell proliferation, read-out: IC50 (μM) MV411): 3 µM | IC50 (MOLM-14 cells; [2]): 6.5 ± 0.28 µM | IC50 (MOLM-14 cells; Table 7, cell proliferation, read-out: IC50 (μM) MOLM-14): 6.3 µM

Molecule: COc1ccc2c(c1)C(=O)C(NCCO)=C(C1=C(NCCO)C(=O)c3ccccc3C1=O)C2=O [Compound 104, 3,3′-bis(2-hydroxyethylamino)-6-methoxy-2,2′-binaphthalenyl-1,1′,4,4′-tetrone]
IC50 (MV4-11 cells; [5]): 1.16 ± 0.2 µM | IC50 (MV4-11 cells; [6]): 2.05 ± 0.4 µM | IC50 (MOLM-14 cells; [7]): 0.37 ± 0.17 µM | IC50 (MOLM-14 cells; [8]): 1.32 ± 0.23 µM

Molecule: O=C1C(NCCO)=C(C2=C(NCCO)C(=O)c3cc(F)ccc3C2=O)C(=O)c2ccccc21 [Compound 105, 3,3′-bis(2-hydroxyethylamino)-6-fluoro-2,2′-binaphthyl-1,1′,4,4′-tetrone]
IC50 (MV4-11 cells; [5]): 2.05 ± 0.4 µM | IC50 (MOLM-14 cells; [7]): 1.3 ± 0.23 µM

Molecule: O=C1C(Cl)=C(C2=C(N3CC3)C(=O)c3ccccc3C2=O)C(=O)c2ccccc21 [Compound 106, 3-(aziridin-1-yl)-3′-chloro-[2,2′-binaphthalene]-1,1′ 4,4′-tetrone]
IC50 (THP-1 cells; THP-1, read-out: IC50 THP1 (n)): 7.7 ± 1.3 µM | IC50 (THP-1 cells; THP-1, read-out: IC50 THP-1): 7.7 ± 1.3 µM | IC50 (MOLM-14 cells; Homo sapiens, MOLM-14, read-out: IC50 MOLM-14): 3.9 ± 1 µM | IC50 (MOLM-14 cells; Homo sapiens, MOLM-14, read-out: IC50 MOLM-14 (n)): 3.9 ± 1 µM

Molecule: CC(=O)OCCNC1=C(C2=C(NCCOC(C)=O)C(=O)c3ccccc3C2=O)C(=O)c2ccccc2C1=O [Compound 109, 3,3′bis-[(2-acyloxyethyl)amino]-2,2′-binaphthalenyl-1, -1′,4,4′-tetrone]
IC50 (MV4-11 cells; [5]): 2.2 ± 0.74 µM | IC50 (MOLM-14 cells; [7]): 1 µM

Molecule: O=C1C(C2=C(N3CCN(CCOCCO)CC3)C(=O)c3ccccc3C2=O)=C(N2CCN(CCOCCO)CC2)C(=O)c2ccccc21 [Compound 110, 3,3′-bis(4-(2-(2-hydroxyethoxy)ethyl)piperazin-1-yl)-[2,2′-binaphthalene]-1,1′,4,4′-tetrone]
IC50 (MV4-11 cells; [5]): 140 ± 0.91 µM | IC50 (MOLM-14 cells; [7]): 1.9 ± 0.32 µM

Molecule: CC(O)CNC1=C(C2=C(NCC(C)O)C(=O)c3ccccc3C2=O)C(=O)c2ccccc2C1=O (stereo not shown) [Compound 112]
IC50 (MV4-11 cells; [5]): 3.94 ± 2.23 µM | IC50 (MOLM-14 cells; [7]): 1.49 ± 0.46 µM

Molecule: O=C1C(NCCO)=C(C2=C(NCCO)C(=O)c3ccccc3C2=O)C(=O)c2ccccc21 [Compound 115]
IC50 (MV4-11 cells; [6]): 0.2 ± 0.02 µM | IC50 (MOLM-14 cells; [8]): 0.15 ± 0.01 µM

Molecule: O=C1C(C2=C(N3CCN(CCO)CC3)C(=O)c3ccccc3C2=O)=C(N2CCN(CCO)CC2)C(=O)c2ccccc21 [Compound 116]
IC50 (MV4-11 cells; [6]): 1.65 µM | IC50 (MOLM-14 cells; [8]): 1.17 µM

Molecule: O=C1C(C2=C(N3CCC(O)CC3)C(=O)c3ccccc3C2=O)=C(N2CCC(O)CC2)C(=O)c2ccccc21 [Compound 117]
IC50 (MV4-11 cells; [6]): 2.5 µM | IC50 (MOLM-14 cells; [8]): 4.3 ± 2.1 µM

Molecule: CC(=O)OCCNC1=C(C2=C(NCCOC(C)=O)C(=O)c3ccccc3C2=O)C(=O)c2ccccc2C1=O [Compound 119]
IC50 (MV4-11 cells; [6]): 2.2 ± 0.7 µM | IC50 (MOLM-14 cells; [8]): 1 µM

Molecule: O=C1C(C2=C(N3CCN(CCO)CC3)C(=O)c3ccccc3C2=O)=C(N2CCN(CCO)CC2)C(=O)c2ccccc21 [Compound 121, 3,3′-bis[4-(2-hydroxyethyl)piperazin-1-yl]-4a,5a-dihydro-[2,2′-binaphthalene]-1,1′,4,4′-tetrone]
IC50 (MV4-11 cells; [11]): 1.65 µM | IC50 (MOLM-14 cells; [12]): 1.17 µM

Molecule: O=C1C(C2=C(N3CCC(O)CC3)C(=O)c3ccccc3C2=O)=C(N2CCC(O)CC2)C(=O)c2ccccc21 [Compound 122, 3,3′-bis-(4-hydroxypiperidinyl)-2,2′-binaphthalenyl-1,1′,4,4′-tetrone]
IC50 (MV4-11 cells; [11]): 2.5 µM | IC50 (MOLM-14 cells; [12]): 4.3 ± 2.12 µM

Molecule: O=C1C(Cl)=C(C2=C(N3CCN(CCO)CC3)C(=O)c3ccccc3C2=O)C(=O)c2ccccc21 [Compound 126, 3-chloro-3′-[(4-hydroxyethyl)piperazinyl]-2,2′-binaphthalenyl-1,1′,4,4′-tetrone]
IC50 (MV4-11 cells; [13]): 0.76 ± 0.36 µM | IC50 (MV4-11 cells; [9]): 0.5 µM | IC50 (MOLM-14 cells; [14]): 0.85 ± 0.25 µM | IC50 (MOLM-14 cells; [10]): 0.6 µM

Molecule: O=C1C(NCCO)=C(C2=C(NCCO)C(=O)c3cc(F)ccc3C2=O)C(=O)c2ccccc21 [Compound 137]
IC50 (MV4-11 cells; [6]): 1.16 ± 0.2 µM | IC50 (MOLM-14 cells; [8]): 0.37 ± 0.17 µM

Molecule: O=C1C(Cl)=C(C2=C(Cl)C(=O)c3cc(Br)ccc3C2=O)C(=O)c2ccccc21 [Compound 139]
IC50 (MV4-11 cells; [9]): 5 µM | IC50 (MOLM-14 cells; [10]): 7.1 µM

The remaining lines, values ahead:

IC50 (MV4-11 cells; [3]): 0.49 µM | IC50 (MOLM-14 cells; [4]): 0.12 µM
Molecule: CN(C)CCNC1=C(C2=C(NCCN(C)C)C(=O)c3ccccc3C2=O)C(=O)c2ccccc2C1=O [Compound 103, 3,3′-bis({[2-(dimethylamino)ethyl]amino})-[2,2′-binaphthalene]-1,1′,4,4′-tetrone]

IC50 (MV4-11 cells; [5]): 5.25 ± 0.35 µM | IC50 (MV4-11 cells; [9]): 5 µM | IC50 (MOLM-14 cells; [7]): 5.85 ± 0.64 µM | IC50 (MOLM-14 cells; [10]): 6.3 µM
Molecule: CN(CCO)C1=C(C2=C(N(C)CCO)C(=O)c3ccccc3C2=O)C(=O)c2ccccc2C1=O [Compound 107, 3,3′-bis-[(2-hydroxyethyl)(N-methyl)amino]-2,2′-binaphthalenyl-1,1′,4,4′-tetrone]

IC50 (MV4-11 cells; [5]): 5.5 ± 0.71 µM | IC50 (MV4-11 cells; [9]): 6 µM | IC50 (MOLM-14 cells; [7]): 5.55 ± 0.78 µM | IC50 (MOLM-14 cells; [10]): 6.1 µM
Molecule: COCCN(C)C1=C(C2=C(N(C)CCOC)C(=O)c3ccccc3C2=O)C(=O)c2ccccc2C1=O [Compound 108, 3,3′-bis-[(2-methoxyethyl)(N-methyl)amino]-2,2′-binaphthalenyl-1,1′,4,4′-tetrone]

IC50 (MV4-11 cells; Homo sapiens, MV4-11, Example 5 text, unit inferred, read-out: IC50 against MV4-11): 2.4 ± 0.3 µM
Molecule: CN(C)C1=C(C2=C(N(C)C)C(=O)c3ccccc3C2=O)C(=O)c2ccccc2C1=O [Compound 114, 3,3′-bis(dimethylamino)-[2,2′-binaphthalene]-1,1′,4,4′-tetrone]

IC50 (MV4-11 cells; [6]): 5.25 ± 0.3 µM | IC50 (MOLM-14 cells; [8]): 5.8 ± 0.6 µM
Molecule: CN(CCO)C1=C(C2=C(N(C)CCO)C(=O)c3ccccc3C2=O)C(=O)c2ccccc2C1=O [Compound 118]

IC50 (MV4-11 cells; [3]): 2.15 ± 0.64 µM | IC50 (MV4-11 cells; [9]): 2.4 µM | IC50 (MOLM-14 cells; [4]): 2.8 ± 0.91 µM | IC50 (MOLM-14 cells; [10]): 2.9 µM
Molecule: CN(C)C1=C(C2=C(N(C)C)C(=O)c3ccccc3C2=O)C(=O)c2ccccc2C1=O [Compound 120, 3,3′-bis-(2-dimethylamino)-2,2′-biuaphthalenyl-1,1′,4,4′-tetrone]

IC50 (MV4-11 cells; [13]): 2.4 ± 2 µM | IC50 (MV4-11 cells; [9]): 2.4 µM | IC50 (MOLM-14 cells; [14]): 3 ± 1.42 µM | IC50 (MOLM-14 cells; [10]): 3 µM
Molecule: CN(C)C1=C(C2=C(Cl)C(=O)c3ccccc3C2=O)C(=O)c2ccccc2C1=O [Compound 123, 3-chloro-3′-(dimethylamino)-2,2′-binaphthalenyl-1,1′,4,4′-tetrone]

IC50 (MV4-11 cells; [13]): 1.3 ± 1 µM | IC50 (MV4-11 cells; [9]): 1.3 µM | IC50 (MOLM-14 cells; [14]): 2.8 ± 0.01 µM | IC50 (MOLM-14 cells; [10]): 2.8 µM
Molecule: CN(C)CCN(C)C1=C(C2=C(Cl)C(=O)c3ccccc3C2=O)C(=O)c2ccccc2C1=O [Compound 124, 3-chloro-3′((2-(dimethylamino)ethyl)(methyl)amino)-[2,2′-binaphthalene]-1,1′,4,4′-tetrone]

IC50 (MV4-11 cells; [13]): 1.2 µM | IC50 (MV4-11 cells; [9]): 1.2 µM | IC50 (MOLM-14 cells; [14]): 2.2 µM | IC50 (MOLM-14 cells; [10]): 2.2 µM
Molecule: O=C1C(Cl)=C(C2=C(NCCO)C(=O)c3ccccc3C2=O)C(=O)c2ccccc21 [Compound 125, 3-chloro-3′-[(2-hydroxyethyl)amino]-2,2′-binaphthalenyl-1,1′,4,4′-tetrone]

IC50 (MV4-11 cells; [6]): 2.2 ± 0.6 µM | IC50 (MOLM-14 cells; [8]): 2.8 ± 0.9 µM
Molecule: CN(C)C1=C(C2=C(N(C)C)C(=O)c3ccccc3C2=O)C(=O)c2ccccc2C1=O [Compound 135]

Reference: patent US11459313B2, “Aziridinyl and amino dimeric naphthoquinone compounds and use for acute myeloid leukemia” (University of Maryland, Baltimore, priority 2016, dated 2022)
